According to patent US20240124455A1, “TRICYCLIC COMPOUNDS AS ANTICANCER AGENTS” (JINGRUI BIOPHARMA CO., LTD., priority 2021, published 2024):

How the values were obtained:
[1] = target: T1, BRD4 (BD1) (Homo sapiens, UniProt O60885); test: BRD4 (BD1) binding assay (HTRF); conditions: BRD4 (D1) with GST tag and biotin-labeled acetylated peptide
T1 construct: purchased Reaction Biology Company RD-11-157
Description: The BRD4 (BD1) biochemical binding assay was carried out by Sundia MediTech Co., Ltd. • Materials and suppliers: • BRD4(D1): Reaction Biology Company; catalog #: RD-11-157; batch #1319 • Positive control compound: AZD5153; Selleck, catalog #, S8344, batch #, 1 • Peptide: GL China; catalog #329934; batch #, P171229-JQ329934 • DMSO: Sigma; catalog #, D8418-1L; batch #, SHBG3288V • OptiPlate-384: PerkinElmer; catalog #6007270, batch #, 8240-17211 • Instruments: • Centrifuge (manufacturer: Eppendorf, model: 5430) • Microplate reader (manufacturer: Perkin Elmer, model: EnVision) • Sonic pipetting system (manufacturer: Labcyte, model: Echo® 550) • In the assay, the HTRF method uses an anti-GST antibody with a cryptate chelate-labeled europium element as the donor, and the d2 or XL665-labeled streptavidin (having high affinity with biotin) as the acceptor to study the interaction between BRD4 (D1) with GST tag and biotin-labeled acetylated peptide. When the donor and acceptor are close to each other due to the binding of BRD4 (D1) to the biotin-labeled peptide, the excitation of the donor triggers fluorescence resonance energy transfer (FRET) to the acceptor, which then emits fluorescence at a specific wavelength (665 nm). • General assay procedure: 20 nL of compound solution was transferred to the 384-well plate by Labcyte Echo® 550 liquid handler, and 5 μL of BRD4 (BD1) solution from Reaction Biology Company, RD-11-157, or the assay buffer was added to each well. After centrifuge for 1 minute and incubating 15 minutes at rt, the 5 μL peptide (GL China, Catalog #329934, Batch, P171229-JQ329934) was added to each well. After centrifuge for 1 minute at 1000 rpm, 10 μL detect solution was added to each well. After incubating for 60 minutes, centrifuging 1 minute, the signals were measured by Microplate reader. Data analysis: The inhibition percentage in the presence of the compound was calculated based on the following formula:
% Inhibition=(Signal_max−Signal sample/Signal_max−Signal_min)×100
Fitting the data in GrphaPad Prism V5.0 software with log(inhibitor) vs. response-Variable slope, the IC50 was obtained.

[2] = tested on: MV-4-11; test: Cell proliferation assay (Cell Titer-Glo); assay type: cell-based; conditions: MV-4-11 cells, compound treatment 72 h, CellTiter-Glo
Description: In order to evaluate the activity of the compound on cells, the Cell Titer-Glo assay was used for detection. The cells were incubated in a 37° C. incubator and treated with compounds for 72 hours. At the end of the reaction, the number of living cells in the culture is measured by quantitative determination of ATP. ATP is an indicator of the metabolism of living cells. With Cell Titer-Glo, the luminescence signal produced by cell lysis is proportional to the amount of ATP present, and the amount of ATP is directly proportional to the number of cells in the culture. These signal ratios reflect the cell activity of the compound at that concentration in the well under this condition. • (1) Seeding cells • Trypsinize cells and count cell density with the automated cell counter. • Dilute cell suspension to required density according to seeding density. • Seed 100 ul cells into 96-well plate in growth medium according to the plate map. Medium only is used as background control (Min). • Incubate at 37° C., 5% CO2 overnight. • (2) Compound treatment • Make 200× compound solution in DMSO. • Dilute compounds with growth medium to 3× final concentration by addition of 3 ul 200× compounds to 197 ul growth medium. • Add 50 ul diluted compounds to cells and incubate at 37° C., 5% CO2 for 72 h. • (3) Measurement • Equilibrate the assay plate to room temperature prior to measurement. • Add 40 ul of CellTiter-Glo® Reagent into each well. • Mix contents for 2 minutes on an orbital shaker to induce cell lysis. • Incubate at room temperature for 60 minutes to stabilize luminescent signal. • Record luminescence on Envision. • (4) Data analysis • (1) Using GraphPad Prism 5. • (2) % Inh=(Max signal−Compound signal)/(Max signal−Min signal)×100. • (3) Max signal was obtained from the action of DMSO. • (4) Min signal was obtained from the action of medium only.

| SMILES | IC50 [1] | IC50 ([2]; Homo sapiens, MV4-11, 72 h) | IC50 [2] |
| --- | --- | --- | --- |
| Cc1nnn(C)c1-c1cnc2c3nn(C)c(C(C)(C)O)c3n(C(c3ccccc3)C3CCOCC3)c2c1 (racemic) [Example 2, 2-(6-(1,4-Dimethyl-1H-1,2,3-triazol-5-yl)-2-methyl-4-(phenyl(tetrahydro-2H-pyran-4-yl)methyl)-2,4-dihydropyrazolo[3′,4′:4,5]pyrrolo[3,2-b]pyridin-3-yl)propan-2-ol] | 0.3 nM | 1.48 nM |  |
| Cc1nnn(C)c1-c1cnc2c3nn(C)c(C(C)(C)O)c3n(C(c3ccccn3)C3CCOCC3)c2c1 (racemic) [Example 6] | 0.61 nM | 1.98 nM |  |
| Cc1nnn(C)c1-c1cnc2c3nn(C)c(C(C)(C)O)c3n(C(c3ncccc3F)C3CCOCC3)c2c1 (racemic) [Example 10, 2-(6-(1,4-Dimethyl-1H-1,2,3-triazol-5-yl)-4-((3-fluoropyridin-2-yl)(tetrahydro-2H-pyran-4-yl)methyl)-2-methyl-2,4-dihydropyrazolo[3′,4′:4,5]pyrrolo[3,2-b]pyridin-3-yl)propan-2-ol] | 0.61 nM | 3.42 nM |  |
| [2H]C([2H])([2H])n1nc2c3ncc(-c4c(C)nnn4C)cc3n(C(c3ncccc3F)C3CCOCC3)c2c1C(C)(C)O (racemic) [Example 14, 2-(6-(1,4-Dimethyl-1H-1,2,3-triazol-5-yl)-4-((3-fluoropyridin-2-yl)(tetrahydro-2H-pyran-4-yl)methyl)-2-(methyl-d3)-2,4-dihydropyrazolo[3′,4′:4,5]pyrrolo[3,2-b]pyridin-3-yl)propan-2-ol] | 0.53 nM |  | 1.77 nM |
| [2H]C([2H])([2H])c1nnn(C)c1-c1cnc2c3nn(C)c(C(C)(C)O)c3n(C(c3ncccc3F)C3CCOCC3)c2c1 (racemic) [Example 18, 2-(4-((3-Fluoropyridin-2-yl)(tetrahydro-2H-pyran-4-yl)methyl)-2-methyl-6-(1-methyl-4-(methyl-d3)-1H-1,2,3-triazol-5-yl)-2,4-dihydropyrazolo[3′,4′:4,5]pyrrolo[3,2-b]pyridin-3-yl)propan-2-ol] | 0.52 nM |  | 1.94 nM |
| [2H]C([2H])([2H])c1nnn(C)c1-c1cnc2c3nn(C([2H])([2H])[2H])c(C(C)(C)O)c3n(C(c3ncccc3F)C3CCOCC3)c2c1 (racemic) [Example 22, 2-(4-((3-Fluoropyridin-2-yl)(tetrahydro-2H-pyran-4-yl)methyl)-2-(methyl-d3)-6-(1-methyl-4-(methyl-d3)-1H-1,2,3-triazol-5-yl)-2,4-dihydropyrazolo[3′,4′:4,5]pyrrolo[3,2-b]pyridin-3-yl)propan-2-ol] | 0.34 nM |  | 1.4 nM |
| Cc1nnn(C)c1-c1cnc2c3nn(C)c(C(C)(C)O)c3n(C(c3ccccc3)C3CCOCC3)c2c1 (single isomer, unassigned) [Example 3, 2-(6-(1,4-Dimethyl-1H-1,2,3-triazol-5-yl)-2-methyl-4-(phenyl(tetrahydro-2H-pyran-4-yl)methyl)-2,4-dihydropyrazolo[3′,4′:4,5]pyrrolo[3,2-b]pyridin-3-yl)propan-2-ol] | 1.8 nM |  | 36.9 nM |
| Cc1nnn(C)c1-c1cnc2c3nn(C)c(C(C)(C)O)c3n(C(c3ccccc3)C3CCOCC3)c2c1 (single isomer, unassigned) [Example 4, 2-(6-(1,4-Dimethyl-1H-1,2,3-triazol-5-yl)-2-methyl-4-(phenyl(tetrahydro-2H-pyran-4-yl)methyl)-2,4-dihydropyrazolo[3′,4′:4,5]pyrrolo[3,2-b]pyridin-3-yl)propan-2-ol] | 0.18 nM |  | 1.28 nM |
| Cc1nnn(C)c1-c1cnc2c3nn(C)c(C(C)(C)O)c3n(C(c3ncccc3F)C3CCOCC3)c2c1 (single isomer, unassigned) [Example 11, 2-(6-(1,4-Dimethyl-1H-1,2,3-triazol-5-yl)-4-((3-fluoropyridin-2-yl)(tetrahydro-2H-pyran-4-yl)methyl)-2-methyl-2,4-dihydropyrazolo[3′,4′:4,5]pyrrolo[3,2-b]pyridin-3-yl)propan-2-ol] | 6.8 nM |  | 63.3 nM |
